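Assay format: 96-well plates, 48-hour exposure. The concentration for full growth arrest is given as TGI.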
Assays:
Experiment in all cases: NCI tumour cell line growth inhibition, 48 h
SNB-19 CNS = tested on: SNB-19 CNS
EKVX NSCLC = tested on: EKVX NSCLC
786-0 renal = tested on: 786-0 renal
SW-620 colon = tested on: SW-620 colon
HCT-15 colon = tested on: HCT-15 colon
RXF 393 renal = tested on: RXF 393 renal
UACC-62 melanoma = tested on: UACC-62 melanoma
HOP-92 NSCLC = tested on: HOP-92 NSCLC
NCI/ADR-RES ovarian = tested on: NCI/ADR-RES ovarian
A498 renal = tested on: A498 renal
CCRF-CEM leukemia = tested on: CCRF-CEM leukemia
SF-539 CNS = tested on: SF-539 CNS
SR leukemia = tested on: SR leukemia
KM12 colon = tested on: KM12 colon
SNB-75 CNS = tested on: SNB-75 CNS
NCI-H23 lung = tested on: NCI-H23 lung
HOP-62 NSCLC = tested on: HOP-62 NSCLC
SF-268 CNS = tested on: SF-268 CNS
MDA-MB-231 breast = tested on: MDA-MB-231 breast
T-47D breast = tested on: T-47D breast

Measured: TGI

O=c1c2ccccc2ncn1COCc1ccccc1
not listed: SNB-75 CNS | NCI-H23 lung | HOP-62 NSCLC | SF-268 CNS | MDA-MB-231 breast | T-47D breast
> 100 µM: all other assays above

Cc1ccccc1SC(/C=C/NNC1=NC(c2ccccc2)C(c2ccccc2)=NN1)c1ccccc1 (centres undefined)
27.6 µM: SF-539 CNS
25.9 µM: 786-0 renal
58.7 µM: SF-268 CNS
50.2 µM: NCI-H23 lung
20.8 µM: SNB-75 CNS
94.4 µM: CCRF-CEM leukemia
> 100 µM: SNB-19 CNS | EKVX NSCLC | SW-620 colon | HCT-15 colon | UACC-62 melanoma | KM12 colon
31.2 µM: RXF 393 renal
64.2 µM: A498 renal
49.4 µM: HOP-62 NSCLC
27.7 µM: HOP-92 NSCLC

COc1ccc(C/C=C(\C)CCO)cc1
not listed: A498 renal | T-47D breast
> 100 µM: all other assays above

Oc1ccc(O)c(-n2cccn2)c1
73.7 µM: SW-620 colon
93.2 µM: HOP-92 NSCLC
57 µM: CCRF-CEM leukemia
not listed: NCI/ADR-RES ovarian | SR leukemia | MDA-MB-231 breast | T-47D breast
> 100 µM: all other assays above

OC(c1cc2ccccc2[nH]1)C(O)(c1cc2ccccc2[nH]1)c1cc2ccccc2[nH]1 (centres undefined)
23.2 µM: UACC-62 melanoma
33 µM: HCT-15 colon
48.3 µM: HOP-62 NSCLC
88.7 µM: SF-539 CNS
85.2 µM: SF-268 CNS
20.8 µM: 786-0 renal
50.1 µM: HOP-92 NSCLC
29.1 µM: RXF 393 renal
21 µM: NCI-H23 lung
> 245 µM: SNB-19 CNS | CCRF-CEM leukemia | SR leukemia | KM12 colon
60.9 µM: EKVX NSCLC
43.1 µM: SW-620 colon

C/C1=C\[C@@H](C)C[C@@H](C)OC(=O)[C@@H](C)NC(=O)[C@H](Cc2ccc(O)c(Br)c2)N(C)C(=O)CNC(=O)[C@H](C)C1
< 0.0429 µM: RXF 393 renal
> 100 µM: SNB-19 CNS | SW-620 colon | KM12 colon
1.89 µM: SF-268 CNS
5.34 µM: MDA-MB-231 breast
> 55.1 µM: UACC-62 melanoma
< 0.021 µM: A498 renal
5.84 µM: 786-0 renal
> 57 µM: NCI/ADR-RES ovarian
0.0993 µM: HOP-92 NSCLC
0.677 µM: SF-539 CNS
< 0.01 µM: SNB-75 CNS | CCRF-CEM leukemia
44.2 µM: HCT-15 colon

CC(C)(C)OC(=O)NC(Cc1ccccc1)C(=S)N1CCCC1 (centres undefined)
91 µM: HOP-62 NSCLC
not listed: NCI/ADR-RES ovarian | SR leukemia | MDA-MB-231 breast | T-47D breast
> 100 µM: all other assays above

O=C(/C=C/c1ccc(-c2ccccc2)cc1)c1ccccc1
50 µM: UACC-62 melanoma
> 100 µM: SNB-75 CNS | CCRF-CEM leukemia
40.6 µM: KM12 colon
87.1 µM: SR leukemia
45.7 µM: A498 renal
50.8 µM: EKVX NSCLC
32.2 µM: SF-539 CNS
42.7 µM: SW-620 colon
50.9 µM: 786-0 renal
54.9 µM: HCT-15 colon
41.8 µM: NCI-H23 lung
51.7 µM: HOP-92 NSCLC
70.1 µM: SF-268 CNS

COC(=O)C(/C(=N/N)C(=O)Nc1cc(Cl)ccc1Cl)c1nc2ccc([N+](=O)[O-])cc2[nH]c1=O (centres undefined)
not listed: RXF 393 renal | NCI/ADR-RES ovarian | SNB-75 CNS | MDA-MB-231 breast | T-47D breast
> 100 µM: all other assays above

O=C(NC1CCCCC1)NC12CC3CC(CC(F)(C3)C1)C2
not listed: HCT-15 colon | NCI/ADR-RES ovarian | SR leukemia | SF-268 CNS | MDA-MB-231 breast | T-47D breast
> 100 µM: all other assays above

CC1=C(C(=O)O)N2C(=O)[C@@H](NC(=O)C(c3ccccc3)N3CSC(=S)N(C(C)C)C3)C2SC1 (some centres undefined)
not listed: SW-620 colon | RXF 393 renal | NCI/ADR-RES ovarian | SR leukemia | SF-268 CNS | MDA-MB-231 breast | T-47D breast
> 100 µM: all other assays above

COc1ccc(C2=NN(C(C)=O)c3nc4ccccc4nc3O2)cc1
43.1 µM: SF-539 CNS
87.7 µM: SNB-19 CNS
62.5 µM: HOP-92 NSCLC
21.7 µM: SNB-75 CNS
48.7 µM: 786-0 renal
64 µM: HOP-62 NSCLC
not listed: RXF 393 renal | NCI/ADR-RES ovarian | A498 renal | MDA-MB-231 breast | T-47D breast
> 100 µM: all other assays above

O=C1/C(=C/c2ccc([N+](=O)[O-])cc2)CCCc2ccccc21
not listed: RXF 393 renal | A498 renal | T-47D breast
> 100 µM: all other assays above

Cc1ccc([N+](=O)[O-])cc1NC(=O)C(=O)Cc1nc2ccc(C(=O)c3ccccc3)cc2[nH]c1=O
not listed: NCI/ADR-RES ovarian | A498 renal | SF-268 CNS | MDA-MB-231 breast | T-47D breast
> 100 µM: all other assays above

COc1c(C)c(C/C=C(\C)CC/C=C(\C)CC/C=C(\C)CC/C=C(\C)CCC=C(C)C)c(OC)c(OC)c1OC
31.8 µM: 786-0 renal | HOP-92 NSCLC
53.8 µM: CCRF-CEM leukemia
29.1 µM: KM12 colon
37.6 µM: HOP-62 NSCLC
54.7 µM: SR leukemia
59.8 µM: NCI/ADR-RES ovarian
39.4 µM: SF-268 CNS
44.2 µM: NCI-H23 lung
not listed: A498 renal | T-47D breast
> 100 µM: all other assays above

CCSC1=N/C(=C\c2ccco2)C(Nc2ccc(C)cc2)=N1
not listed: RXF 393 renal | SF-539 CNS | T-47D breast
> 100 µM: all other assays above

CCCCN(C)CC(C(C)=O)C(c1ccccc1)c1c(O)c2ccccc2oc1=O (centres undefined)
not listed: HOP-92 NSCLC | NCI/ADR-RES ovarian | MDA-MB-231 breast | T-47D breast
> 100 µM: all other assays above

CC(=O)NNc1ncc(C(=O)/C=C/c2ccccc2C)s1
not listed: HCT-15 colon | NCI/ADR-RES ovarian | SR leukemia | MDA-MB-231 breast | T-47D breast
> 100 µM: all other assays above

CC(C)(Oc1ccc2c(=O)cc(-c3ccc(Cl)cc3)oc2c1)C(=O)Nc1c(Cl)cccc1Cl
not listed: RXF 393 renal | NCI/ADR-RES ovarian | SNB-75 CNS | MDA-MB-231 breast | T-47D breast
> 100 µM: all other assays above

CO/S(=N/S(=O)(=O)c1ccccc1)c1ccccc1[N+](=O)[O-] (centres undefined)
not listed: RXF 393 renal | HOP-92 NSCLC | NCI/ADR-RES ovarian | A498 renal | MDA-MB-231 breast | T-47D breast
> 100 µM: all other assays above

Cc1cn(C(CO)OC(CO)CN(O)C2C3CC4CC(C3)CC2C4)c(=O)[nH]c1=O (centres undefined)
not listed: RXF 393 renal | NCI/ADR-RES ovarian | CCRF-CEM leukemia
> 100 µM: all other assays above

O=CC1=CCCN(CCc2c[nH]c3ccccc23)C1
> 393 µM: CCRF-CEM leukemia | SR leukemia
162 µM: SF-268 CNS
117 µM: 786-0 renal
101 µM: NCI-H23 lung
111 µM: UACC-62 melanoma
108 µM: SF-539 CNS
92.9 µM: SNB-19 CNS
89.9 µM: SW-620 colon
202 µM: EKVX NSCLC
85.8 µM: RXF 393 renal
83.2 µM: HCT-15 colon
121 µM: HOP-92 NSCLC
104 µM: HOP-62 NSCLC
128 µM: KM12 colon

CSc1nc2nccnc2c(=O)[nH]1
not listed: NCI/ADR-RES ovarian | SF-539 CNS | KM12 colon | MDA-MB-231 breast | T-47D breast
> 100 µM: all other assays above

CC1=C(O)C(=O)C2C(=O)C1C(C)C2c1ccccc1 (centres undefined)
not listed: NCI/ADR-RES ovarian | MDA-MB-231 breast | T-47D breast
> 100 µM: all other assays above

CCCNC(=O)Cn1c2c(c3ccccc31)CCCC2
not listed: RXF 393 renal | KM12 colon | SNB-75 CNS | MDA-MB-231 breast | T-47D breast
> 100 µM: all other assays above

COC(=O)Cc1cccc2c(=O)c(S(=O)(=O)NC(=O)Nc3ccc(Cl)cc3)c(-c3ccccc3)oc12
not listed: RXF 393 renal | A498 renal | T-47D breast
> 100 µM: all other assays above

[N-]=[N+]=C1C(=O)C2CC3CC1CC2C3 (centres undefined)
not listed: NCI/ADR-RES ovarian | MDA-MB-231 breast | T-47D breast
> 100 µM: all other assays above

O=P(O)(O)c1ccc2c(c1)OCCOCCOCCOCCO2
not listed: RXF 393 renal | HOP-92 NSCLC | NCI/ADR-RES ovarian
> 100 µM: all other assays above

COc1nc2c(c(=O)[nH]1)N=C(c1ccccc1)CC(c1ccccc1)N2 (centres undefined)
52.5 µM: SNB-75 CNS
81.6 µM: MDA-MB-231 breast
71.7 µM: RXF 393 renal
not listed: HCT-15 colon | SR leukemia | SF-268 CNS | T-47D breast
> 100 µM: all other assays above

Reference: PubChem BioAssay (NCI)
